Experimental data published in patent US20260184663A1, “INDENE COMPOUNDS, PHARMACEUTICAL COMPOSITIONS THEREOF, AND THEIR THERAPEUTIC APPLICATIONS” (NucMito Pharmaceuticals co. Ltd., priority 2022, published 2026).

Key:
Format in all cases: cell-based
[1] = test system: MDA-MB-231 (breast cancer); test: Antiproliferative activity (CCK-8 cell viability), MDA-MB-231; settings: Homo sapiens, 72 h; for inhibition at 3.3 µM: Compound concentration: 3.3 μM; for inhibition at 3.3 µM / inhibition at 10 µM: read-out: Antiproliferative activity in cancerous cells, MDA-MB-231 (inhibition of cell growth); for inhibition at 10 µM: Compound concentration: 10 μM; for inhibition at 30 µM: Compound concentration: 30 μM, read-out: Antiproliferative activity in cancerous cells, MDA-MB-231
Method in brief: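 In this CCK-8 viability assay, MDA-MB-231 cells maintained in Dulbecco's modified Eagle's medium containing 10% fetal bovine serum were placed in 96-well plates (2,000-5,000 cells/well) and treated with compound for 72 h at 37° C. A 4 h incubation with 10 μL CCK-8 followed, plates were read at 450 nm, and viability was expressed against DMSO vehicle wells across replicates.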

[2] = test system: HepG2 (liver cancer); test: Antiproliferative activity (CCK-8 cell viability), HepG2; settings: Homo sapiens, 72 h, read-out: Antiproliferative activity in cancerous cells, HepG2 (inhibition of cell growth); for inhibition at 3.3 µM: Compound concentration: 3.3 μM; for inhibition at 10 µM: Compound concentration: 10 μM
Method in brief: (§1)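 Cells were seeded at 2,000-5,000/well (HeLa in MEM, HepG2 and SW480 in DMEM, A549 in F-12K, all with 10% FBS) and treated with compound at 3.3, 10 or 30 μM for 72 h at 37° C. CCK-8 was added for 4 h, absorbance was read at 450 nm, and viability was expressed relative to DMSO-treated wells.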

[3] = test system: SW480 (colon cancer); test: Antiproliferative activity (CCK-8 cell viability), SW480; settings: Homo sapiens, 72 h, read-out: Antiproliferative activity in cancerous cells, SW480 (inhibition of cell growth); for inhibition at 3.3 µM: Compound concentration: 3.3 μM; for inhibition at 10 µM: Compound concentration: 10 μM
Method in brief: as §1

[4] = test system: B16F10 (malignant melanoma); test: Antiproliferative activity (CCK-8 cell viability), B16F10; settings: Mus musculus, 72 h, read-out: Antiproliferative activity in cancerous cells, B16F10 (inhibition of cell growth); for inhibition at 3.3 µM: B16-F10, Compound concentration: 3.3 μM; for inhibition at 10 µM: B16-F10, Compound concentration: 10 μM
Method in brief: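 Attached B16F10 cells in 96-well plates were incubated with compound at 37° C for 72 h, followed by 10 μL CCK-8 reagent per well and a further 4 h incubation. A multi-well plate reader measured absorbance at 450 nm. Percent viability across replicates was calculated against DMSO vehicle-treated cells.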

[5] = test system: A431 (epidermoid carcinoma); test: Antiproliferative activity (CCK-8 cell viability), A431; settings: Homo sapiens, 72 h, read-out: Antiproliferative activity in cancerous cells, A431 (inhibition of cell growth); for inhibition at 3.3 µM: A-431, Compound concentration: 3.3 μM; for inhibition at 10 µM: A-431, Compound concentration: 10 μM
Method in brief: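 Cell viability of compound-treated A431 cells was measured with a Cell Counting Kit-8. Each well received 10 μL of CCK-8 after 72 h of compound exposure, followed by 4 h incubation at 37° C. and a 450 nm plate-reader measurement. Percent viability was calculated relative to DMSO controls across replicates.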

[6] = test system: A549 (lung adenocarcinoma); test: Antiproliferative activity (CCK-8 cell viability), A549; settings: Homo sapiens, 72 h; for inhibition at 3.3 µM: Compound concentration: 3.3 μM; for inhibition at 3.3 µM / inhibition at 10 µM: read-out: Antiproliferative activity in cancerous cells, A549 (inhibition of cell growth); for inhibition at 10 µM: Compound concentration: 10 μM
Method in brief: as §1

[7] = test system: HeLa (cervical cancer); test: Antiproliferative activity (CCK-8 cell viability), HeLa; settings: Homo sapiens, 72 h, read-out: Antiproliferative activity in cancerous cells, HELA (inhibition of cell growth); for inhibition at 3.3 µM: Compound concentration: 3.3 μM; for inhibition at 10 µM: Compound concentration: 10 μM
Method in brief: as §1

Row | Compound | inhibition at 3.3 µM [1] [%] | inhibition at 10 µM [1] [%] | inhibition at 30 µM [1] [%] | inhibition at 3.3 µM [2] [%] | inhibition at 10 µM [2] [%] | inhibition at 3.3 µM [3] [%] | inhibition at 10 µM [3] [%] | inhibition at 3.3 µM [4] [%] | inhibition at 10 µM [4] [%] | inhibition at 3.3 µM [5] [%] | inhibition at 10 µM [5] [%] | inhibition at 3.3 µM [6] [%] | inhibition at 10 µM [6] [%] | inhibition at 3.3 µM [7] [%] | inhibition at 10 µM [7] [%] | inhibition at 30 µM ([6]; Compound concentration: 30 μM, read-out: Antiproliferative activity in cancerous cells, A549) [%]
1 | CC1=C(CC(=O)O)c2cc(Cl)ccc2/C1=C\c1ccc(COc2ccc(C(F)(F)F)cc2)cc1 [B58, (Z)-2-(5-Chloro-2-methyl-1-(4-((4-(trifluoromethyl)phenoxy)methyl)-benzylidene)-1H-inden-3-yl)acetic acid] | < 30 | < 30 | 30 to 50 | < 30 | ≥ 50 | < 30 | 30 to 50 | ≥ 50 | ≥ 50 | 30 to 50 | 30 to 50 | < 30 | 30 to 50 | 30 to 50 | ≥ 50 | 
2 | CC1=C(CC(=O)O)c2cc(C)ccc2/C1=C\c1ccc(COc2ccc(C(F)(F)F)cc2)cc1 [B59, (Z)-2-(2,5-Dimethyl-1-(4-((4-(trifluoromethyl)phenoxy)methyl)benzylidene)-1H-inden-3-yl)acetic acid] | < 30 | < 30 | < 30 | < 30 | < 30 | < 30 | 30 to 50 | 30 to 50 | ≥ 50 | ≥ 50 | ≥ 50 | < 30 | 30 to 50 | 30 to 50 | 30 to 50 | 30 to 50
3 | CCc1ccc2c(c1)C(CC(=O)O)=C(C)/C2=C/c1ccc(COc2ccc(C(F)(F)F)cc2)cc1 [B60, (Z)-2-(5-Ethyl-2-methyl-1-(4-((4-(trifluoromethyl)phenoxy)methyl)benzylidene)-1H-inden-3-yl)acetic acid] | < 30 | < 30 |  | ≥ 50 | ≥ 50 | < 30 | ≥ 50 | 30 to 50 | ≥ 50 | ≥ 50 | ≥ 50 | 30 to 50 | ≥ 50 | 30 to 50 | ≥ 50 | 
4 | CC1=C(CC(=O)O)c2cc(F)ccc2/C1=C\c1cccc(C(=O)Nc2ccc(F)cc2)c1 [B69, (Z)-2-(5-Fluoro-1-(3-((4-fluorophenyl)carbamoyl)benzylidene)-2-methyl-1H-inden-3-yl)acetic acid] | 30 to 50 | ≥ 50 |  | 30 to 50 | ≥ 50 | 30 to 50 | ≥ 50 | ≥ 50 | ≥ 50 | < 30 | ≥ 50 | < 30 | ≥ 50 | ≥ 50 | ≥ 50 | 
5 | CC1=C(CC(=O)O)c2cc(F)ccc2/C1=C\c1ccc(OCc2cc3ccccc3s2)cc1 [B70, (Z)-2-(1-(4-(Benzo[b]thiophen-2-ylmethoxy)benzylidene)-5-fluoro-2-methyl-1H-inden-3-yl)acetic acid] | 30 to 50 | ≥ 50 |  | ≥ 50 | ≥ 50 | 30 to 50 | ≥ 50 | ≥ 50 | ≥ 50 | 30 to 50 | 30 to 50 | ≥ 50 | ≥ 50 | ≥ 50 | ≥ 50 | 
